Usually solubility stands for how much of the substance goes into solution per volume. For orientation: Kd means the constant that tells how readily two partners part at equilibrium. Broadly, the EC50 is the concentration giving half of the maximal effect.

≈ marks a conversion by molar mass, not a printed value. Where “and” joins values, the source holds several entries; their conditions need not be identical. Equal entries are not always repeated.

The target in one data set is T1, Nurr1 LBD (Homo sapiens, UniProt P43354).
T1 construct: Nurr1 LBD protein (5–30 µM, expressed as described previously[21]); made in house
The experiment in a line: Isothermal titration calorimetry (ITC). The class given is binding. The note with it: 25 °C. On the procedure: ITC experiments were conducted on an Affinity ITC instrument (TA Instruments, New Castle, DE) at 25 °C with a stirring rate of 75 rpm. Nurr1 LBD protein (5–30 µM, expressed as described previously[21]) in buffer (20 mM Tris pH 7.5, 100 mM NaCl, 5% glycerol) containing 1–4% DMSO was titrated with the test compounds (30–150 μM in the same buffer containing 1-4% DMSO) in 26 injections (1 × 1 µL, 25 × 3-4 μL) with an injection interval of 120-150 s. As control experiments, the test compounds were titrated to the buffer, and the buffer was titrated to the Nurr1 LBD protein under otherwise identical conditions. Results were analyzed using NanoAnalyze software (version 3.11.0, TA Instruments, New Castle, DE) with independent binding models.
In general terms: ITC needs no label: the signal is the heat of the interaction.

In data set [1] the target is T2, human full-length Nurr1 monomer (NBRE) (Homo sapiens, UniProt P43354).
T2 construct: The full-length human nuclear receptor Nurr1 (pcDNA3.1-hNurr1-NE; Addgene plasmid #102363); host or cells: HEK293T
The experiment in a line: Full-length Nurr1 reporter gene assay (NBRE). The class given is cell-based. The note with it: full-length human Nurr1 monomer, HEK293T. The text has this:
Activation of full-length human Nurr1 was studied in transiently transfected HEK293T cells using the reporter plasmids pFR-Luc-NBRE[14], pFR-Luc-POMC[14] or pFR-Luc-DR5[14] each containing one copy of the respective human Nurr1 response element NBRE Nl3, NurRE, or DR5. The full-length human nuclear receptor Nurr1 (pcDNA3.1-hNurr1-NE; Addgene plasmid #102363) and, for DR5, RXRα (pSG5-hRXR)[57] were overexpressed. pRL-SV40 (Promega) was used for the normalization of transfection efficacy and to observe test compound toxicity. […] After 24 h, the medium was changed to Opti-MEM without supplements, and cells were transiently transfected using Lipofectamine LTX reagent (Invitrogen) according to the manufacturer’s protocol. Five hours after transfection, cells were incubated with the test compounds in Opti-MEM supplemented with penicillin (100 U/mL), streptomycin (100 μg/mL) and 0.1% DMSO for 16 h before luciferase activity was measured using the Dual-Glo Luciferase Assay System (Promega) according to the manufacturer’s protocol on a Tecan Spark luminometer (Tecan Deutschland GmbH). Firefly luminescence was divided by Renilla luminescence and multiplied by 1000 resulting in relative light units (RLU) to normalize for transfection efficiency and cell growth. Fold activation was obtained by dividing the mean RLU of the test compound by the mean RLU of the untreated control. All samples were tested in at least three biologically independent experiments in duplicates. For dose-response curve fitting and calculation of EC50 values, the equation “[Agonist] vs. response -- Variable slope (four parameters)” was used in GraphPad Prism (version 7.00, GraphPad Software).

A short description of a further data set: Aqueous solubility. The format is physicochemical. The note with it: water, 25 °C, read-out: aq. solubility. As to the method:
The mixture was agitated in a VWR Thermal Shake lite (VWR International GmbH, Darmstadt, Germany) for 24 h at 600 rpm and a constant temperature of 25 °C. The supersaturated mixtures were subsequently centrifuged at 23.300 rpm for 15 min (25 °C). Part of the supernatant was taken off for quantification by UV absorbance at 312 nm with external calibration. The external calibration samples contained 1% DMSO and the test samples were spiked with DMSO to 1% concentration right before the measurement. Absorbance was measured with a Tecan Spark luminometer (Tecan Deutschland GmbH, Crailsheim, Germany). The solubility test was repeated in three independent experiments.

The target of the next data set is T3, NOR-1 (Homo sapiens, UniProt Q92570).
T3 construct: chimeric receptors composed of the Gal4-DBD and the hinge region and LBD; expressed in transfected cells; host or cells: HEK293T
T3 sequence (Q92570 394-623 limits assumed): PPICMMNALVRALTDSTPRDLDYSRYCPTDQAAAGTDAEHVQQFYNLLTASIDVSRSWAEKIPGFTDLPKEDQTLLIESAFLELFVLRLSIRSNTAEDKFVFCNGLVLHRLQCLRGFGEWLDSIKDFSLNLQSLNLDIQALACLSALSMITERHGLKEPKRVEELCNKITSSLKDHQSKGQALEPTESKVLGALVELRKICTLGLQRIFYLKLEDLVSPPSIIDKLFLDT
Put plainly: Gal4-NOR-1 hybrid reporter gene assay. The format is cell-based. The note with it: HEK293T. As to the method:
(§1) Nurr1 modulation was determined in a Gal4 hybrid reporter gene assay in HEK293T cells (German Collection of Microorganisms and Cell Culture GmbH, DSMZ) using pFR-Luc (Stratagene, La Jolla, CA, USA; reporter), pRL-SV40 (Promega, Madison, WI, USA; internal control) and pFA-CMV-hNurr1-LBD[14], coding for the hinge region and ligand binding domain of the canonical isoform of human Nurr1. […] After 24 h, the medium was changed to Opti-MEM without supplements, and cells were transiently transfected using Lipofectamine LTX reagent (Invitrogen, Carlsbad, CA, USA) according to the manufacturer’s protocol. Five hours after transfection, cells were incubated with the test compounds in Opti-MEM supplemented with penicillin (100 U/mL), streptomycin (100 μg/mL), and 0.1% DMSO for 16 h before luciferase activity was measured using the Dual-Glo Luciferase Assay System (Promega) according to the manufacturer’s protocol on a Tecan Spark luminometer (Tecan Deutschland GmbH, Crailsheim, Germany). Firefly luminescence was divided by Renilla luminescence and multiplied by 1000 resulting in relative light units (RLU) to normalize for transfection efficiency and cell growth. Fold activation was obtained by dividing the mean RLU of the test compound by the mean RLU of the untreated control. All samples were tested in at least three biologically independent experiments in duplicates. For dose-response curve fitting and calculation of EC50 values, the equation “[Agonist] vs. response -- Variable slope (four parameters)” was used in GraphPad Prism (version 7.00, GraphPad Software, La Jolla, CA, USA). Selectivity profiling was performed with identical procedures using pFA-CMV-Nur77-LBD[14], pFA-CMV-NOR-1-LBD[14], pFA-CMV-THRα-LBD[51], pFA-CMV-RARα-LBD[52], pFA-CMV-PPARα-LBD[53], pFA-CMV-PPARγ-LBD[53], pFA-CMV-PPARδ-LBD[53], pFA-CMV-LXRα-LBD[54], pFA-CMV-FXR-LBD[55] and pFA-CMV-hRXRα-LBD[56].
In general terms: In a reporter assay the amount or activity of a reporter protein is the signal.

The target in another data set is T4, Nur77 (Homo sapiens, UniProt P22736).
T4 construct: chimeric receptors composed of the Gal4-DBD and the hinge region and LBD; expressed in transfected cells; host or cells: HEK293T
The experiment in a line: Gal4-Nur77 hybrid reporter gene assay. The class given is cell-based. The note with it: HEK293T. As to the method: as §1

Data set [2] deals with human midbrain organoids from wildtype iPSC (isogenic control). Put plainly: Midbrain organoid model, isogenic control. The note with it: immunostaining, fixed area. The class given is cell-based.
The target in the next data set is T5, PPARδ (Homo sapiens, UniProt Q03181).
T5 construct: chimeric receptors composed of the Gal4-DBD and the hinge region and LBD; expressed in transfected cells; host or cells: HEK293T
Put plainly: Gal4-hybrid selectivity assay PPARδ. The class given is cell-based. The note with it: 3 µM; reference agonist = 100%. On the procedure: (§2) Nurr1 modulation was determined in a Gal4 hybrid reporter gene assay in HEK293T cells (German Collection of Microorganisms and Cell Culture GmbH, DSMZ) using pFR-Luc (Stratagene, La Jolla, CA, USA; reporter), pRL-SV40 (Promega, Madison, WI, USA; internal control) and pFA-CMV-hNurr1-LBD[14], coding for the hinge region and ligand binding domain of the canonical isoform of human Nurr1. […] After 24 h, the medium was changed to Opti-MEM without supplements, and cells were transiently transfected using Lipofectamine LTX reagent (Invitrogen, Carlsbad, CA, USA) according to the manufacturer’s protocol. Five hours after transfection, cells were incubated with the test compounds in Opti-MEM supplemented with penicillin (100 U/mL), streptomycin (100 μg/mL), and 0.1% DMSO for 16 h before luciferase activity was measured using the Dual-Glo Luciferase Assay System (Promega) according to the manufacturer’s protocol on a Tecan Spark luminometer (Tecan Deutschland GmbH, Crailsheim, Germany). Firefly luminescence was divided by Renilla luminescence and multiplied by 1000 resulting in relative light units (RLU) to normalize for transfection efficiency and cell growth. Fold activation was obtained by dividing the mean RLU of the test compound by the mean RLU of the untreated control. All samples were tested in at least three biologically independent experiments in duplicates. […]

For the next data set, the target named is T6, LXRα (Homo sapiens, UniProt Q13133).
T6 construct: chimeric receptors composed of the Gal4-DBD and the hinge region and LBD; expressed in transfected cells; host or cells: HEK293T
The experiment in a line: Gal4-hybrid selectivity assay LXRα. The class given is cell-based. The note with it: 3 µM; reference agonist = 100%. On the procedure:
as §2

T6 sequence (Q13133 209-447 limits assumed): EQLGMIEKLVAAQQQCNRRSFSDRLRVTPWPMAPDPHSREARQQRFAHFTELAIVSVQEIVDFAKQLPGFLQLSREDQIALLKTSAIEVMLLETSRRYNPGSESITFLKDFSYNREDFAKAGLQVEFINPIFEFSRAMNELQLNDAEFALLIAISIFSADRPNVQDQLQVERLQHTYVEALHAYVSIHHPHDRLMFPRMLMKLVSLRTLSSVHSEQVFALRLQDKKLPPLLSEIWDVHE
T1 sequence (P43354 360-595 limits assumed): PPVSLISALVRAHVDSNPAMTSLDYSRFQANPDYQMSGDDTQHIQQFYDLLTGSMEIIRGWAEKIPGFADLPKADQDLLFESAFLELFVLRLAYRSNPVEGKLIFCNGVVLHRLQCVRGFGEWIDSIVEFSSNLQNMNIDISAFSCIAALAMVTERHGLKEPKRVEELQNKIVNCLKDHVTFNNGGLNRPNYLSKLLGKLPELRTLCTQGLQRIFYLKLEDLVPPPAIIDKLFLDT
T5 sequence (Q03181 211-439 limits assumed): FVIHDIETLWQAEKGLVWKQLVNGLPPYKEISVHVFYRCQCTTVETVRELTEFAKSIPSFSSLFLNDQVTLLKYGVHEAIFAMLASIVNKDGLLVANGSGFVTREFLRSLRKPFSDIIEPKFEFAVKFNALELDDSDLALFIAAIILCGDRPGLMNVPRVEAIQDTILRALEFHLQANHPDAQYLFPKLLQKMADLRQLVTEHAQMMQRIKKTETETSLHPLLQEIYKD
T4 sequence (P22736 360-595 limits assumed): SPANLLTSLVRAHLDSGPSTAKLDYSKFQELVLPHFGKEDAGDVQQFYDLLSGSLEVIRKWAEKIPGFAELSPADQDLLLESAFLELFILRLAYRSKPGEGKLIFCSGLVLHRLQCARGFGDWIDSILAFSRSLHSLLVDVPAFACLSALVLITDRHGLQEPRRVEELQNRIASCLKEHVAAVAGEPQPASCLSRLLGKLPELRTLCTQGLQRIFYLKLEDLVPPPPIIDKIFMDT
T2 sequence (P43354 whole entry): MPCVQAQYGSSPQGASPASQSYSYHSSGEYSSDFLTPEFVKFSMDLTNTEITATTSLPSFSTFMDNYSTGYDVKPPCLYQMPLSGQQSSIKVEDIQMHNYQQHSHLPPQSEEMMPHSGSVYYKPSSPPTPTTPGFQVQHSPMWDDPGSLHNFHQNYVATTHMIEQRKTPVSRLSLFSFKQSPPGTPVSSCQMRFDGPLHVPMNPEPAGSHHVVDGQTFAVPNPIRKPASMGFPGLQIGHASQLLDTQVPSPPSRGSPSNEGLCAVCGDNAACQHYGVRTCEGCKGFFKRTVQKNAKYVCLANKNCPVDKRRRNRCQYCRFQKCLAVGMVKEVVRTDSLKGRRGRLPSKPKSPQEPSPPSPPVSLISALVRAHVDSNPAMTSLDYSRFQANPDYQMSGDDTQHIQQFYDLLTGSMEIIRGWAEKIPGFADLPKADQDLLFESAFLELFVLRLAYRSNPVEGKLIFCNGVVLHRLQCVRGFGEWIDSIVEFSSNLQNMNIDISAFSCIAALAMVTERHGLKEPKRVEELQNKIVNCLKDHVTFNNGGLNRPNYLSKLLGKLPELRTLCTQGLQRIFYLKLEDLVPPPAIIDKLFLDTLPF

Take `Cc1nc2c(Cl)cccn2c1NC(=O)c1ccc(-c2ccccc2)[nH]1` [Compound 29, N-(8-Chloro-2-methylimidazo[1,2-a]pyridin-3-yl)-5-phenyl-1H-pyrrole-2-carboxamide]: the “Kd (Nurr1 LBD)” value on Nurr1 LBD is listed as “no binding^b”. Moreover, the “EC50(NBRE)” value in data set [1] is “no activation (10 µM)”. Also, the solubility at 24 h in the data set “Aqueous solubility” stood at 4.1 µg/mL (≈ 11.7 µM). The “EC50(NOR-1)” value at NOR-1 is on record as “no activation (10 µM)”. The “EC50(Nur77)” value on Nur77 is on record as “no activation (10 µM)”. In data set [2], the TH positive cells was 44 and 37 and 31 and 38.

On Nurr1 LBD, `Cc1nc2c(Cl)cccn2c1NC(=O)c1ccc(-c2ccc(N(C)C)cc2)o1` [Compound 36, N-(8-Chloro-2-methylimidazo[1,2-a]pyridin-3-yl)-5-(4-(dimethylamino)phenyl)furan-2-carboxamide] gave a Kd of 0.17 µM. The “EC50(NBRE)” value in data set [1] is “no activation (1 µM)”. Also, the solubility at 24 h in “Aqueous solubility” amounted to 6.8 µg/mL (≈ 17.2 µM). Moreover, the EC50 on NOR-1 amounted to 0.11 ± 0.03 µM; on Nur77 it was 0.33 ± 0.04 µM. The “% rel. act. PPARδ” value on PPARδ is 4.502% and 5.181% and 2.926%. Besides, on LXRα, the “% rel. act. LXRα” value is 2.022% and 2.102% and 1.670%. Moreover, in data set [2], the TH positive cells is 47 and 50 and 45 and 41.
